Where a SMILES comes first, the peptide text is derived from it. The star is where a group is joined. Palmitoyl = CCCCCCCCCCCCCCCC(=O)*
System: MCF-7 breast cancer cells
Assay: MTT cell toxicity assay in MCF-7 breast cancer cells
Assay type: cell-based
Conditions: MCF-7 cells, MTT; for GI50 / TGI: final 0.5% FBS, two days with compound; for TGI: concentration of total growth inhibition (cytostatic); for growth inhibition / potency in MCF-7 cells (in words): comparison with related peptides
Protocol: Cell Toxicity Assays: MCF-7 (breast cancer), T47D (breast cancer), Colo 205 (colon cancer), JM-1 (rat hepatoma), Sk Me1-2 (melanoma), PLC (human hepatoma), and HepG2 (human hepatoma) cells were obtained from American Type Cell Culture Collection. MCF-7 cells were grown in RPMI medium supplemented with 10% Fetal Bovine Serum. The rest of the cell lines were grown in DMEM medium supplemented with 10% Fetal Bovine Serum.
MTT 43-(4,5-Dimethylthiazol-2-yl)-2,5-diphenyltetrazolium) cell assay was performed using MCF-7 breast cancer cells. For the assay, cells were seeded into 96 well plates in medium containing 1% Fetal Bovine Serum and 100 μL of a cell suspension containing 5000 cells per well. Wells containing medium-only, and wells containing untreated cells, served as controls.
Seeded cells were allowed to attach and grow in the wells for 24 hours. A 5 mM stock solution of each peptide was made by dissolving approximately 1 mg of peptide in appropriate amount of DMSO. 2 mL dilutions were used to make 0.2 μM, 1.0 μM, 5.0 μM, and 10.0 μM concentration solutions of the compounds in serum-free medium. 100 μl, of the resulting 2× solutions were added to the corresponding wells to provide a final FBS concentration of 0.5% and 0.1 μM, 0.5 μM, 2.5 μM, and 5.0 μM dilutions of inhibitors. The cells were incubated with test compounds for two days. The control wells were given 100 μL of medium to ensure maximum similarity to the test wells so that all of the wells had 200 μL of medium during the growth period. An individual plate was made for Time Zero, to which the dye was added at the time of addition of compounds.
An alternative potency assay was used to test compounds in MCF-7 (breast cancer), T47D (breast cancer), Colo 205 (colon cancer), JM-1 (rat hepatoma), Sk MeI-2 (melanoma), PLC (human hepatoma), and HepG2 (human hepatoma) cells. Cells were suspended at a concentration of approximately 5000 cells per 100 μL of suspension in a 5% FBS RPMI medium. The cells were seeded into 96-count wells and incubated over night. After one day's incubation, the 5% FBS medium was aspirated and replaced with 100 μL of no serum RPMI medium containing 1 mg Bovine Serum Albumin (BSA) per 1 mL RPMI. Various concentrations of the test compounds were prepared by dilution in no-serum medium containing 1 mg BSA/mL. 75 μL of the test compound solutions were added to the wells, and the cells were allowed to incubate for 15-20 minutes, after which time 25 μL of human recombinant IGF-1 (Peprotech) solution was added to the wells to attain final concentrations of 10 ng IGF-1/mL medium. The control wells were given 175 μL of no-serum medium in addition to 25 μL of IGF-1 solution. An individual plate was made for time zero, in which the medium was also aspirated and replaced with 175 μL of no-serum medium and 25 μL of IGF-1. 15 μL of MTT dye was added and let incubate for 4 hours, after which time a stop stop solubilization solution was added. The stop solution lysed the cells and released the dye reduced by the remaining living cells. Absorbance of the wells at 544 nm was determined by a FLUOstar/POLARstar Galaxy (BMG Lab Technologies GmbH) microplate reader. The activity was calculated from the data using the formula: 100×[(T−T0)/(C−T0)] for T>T0 and 100×[(T−T0)/T0] for T<T0, wherein T0 corresponds to cell density at the time of drug addition, “T” is the optical density of the test well after a 48-h period of exposure to test drug, and “C” is the control optical density. The GI50 measures the growth inhibitory power of the test agent, and is defined as the concentration of test drug where 100×(T−T0)/(C−T0)=50. The TGI is the concentration of test drug where 100×(T−T0)/(C−T0)=0. Thus, the TGI signifies a cytostatic effect.

Row | Compound | GI50 | TGI | growth inhibition / potency in MCF-7 cells (in words) | cell killing activity (in words)
1 | CCCCCCCCCCCCCCCC(=O)N[C@@H](CCCNC(=N)N)C(=O)N[C@@H](CC(N)=O)C(=O)N[C@@H](CC(N)=O)C(=O)N[C@@H](CO)C(=O)N[C@@H](CCCNC(=N)N)C(=O)N[C@@H](CC(C)C)C(=O)NCC(=O)N[C@@H](CC(N)=O)C(=O)NCC(=O)N[C@H](C(=O)N[C@@H](CC(C)C)C(N)=O)C(C)C [Peptide 30, Pal-RNNSRLGNGVL-NH2] (Palmitoyl-RNNSRLGNGVL-NH2) | 1700 ± 50 nM | 3700 ± 50 nM | – | –
2 | CCCCCCCCCCCCCCCC(=O)N[C@@H](Cc1c[nH]cn1)C(=O)N[C@@H](CCCNC(=N)N)C(=O)N[C@@H](CCCCN)C(=O)N[C@@H](CCCNC(=N)N)C(=O)N[C@@H](CC(N)=O)C(=O)N[C@@H](CC(N)=O)C(=O)N[C@@H](CO)C(=O)N[C@@H](CCCNC(=N)N)C(=O)N[C@@H](CC(C)C)C(=O)NCC(=O)N[C@@H](CC(N)=O)C(=O)NCC(N)=O [Peptide 1, Pal-HRKRNNSRLGNG-NH2] (Palmitoyl-HRKRNNSRLGNG-NH2) | 1800 ± 50 nM | >5000 nM | – | –
3 | CCCCCCCCCCCCCCCC(=O)N[C@@H](CCCNC(=N)N)C(=O)N[C@@H](CC(C)C)C(=O)NCC(=O)N[C@@H](CC(N)=O)C(=O)NCC(=O)N[C@H](C(=O)N[C@@H](CC(C)C)C(=O)N[C@@H](Cc1ccc(O)cc1)C(N)=O)C(C)C [Peptide 20, Pal-RLGNGVLY-NH2] (Palmitoyl-RLGNGVLY-NH2) | 200 ± 6 nM | >5000 nM | gradual reduction in potency | –
4 | CCCCCCCCCCCCCCCC(=O)N[C@@H](Cc1c[nH]cn1)C(=O)N[C@@H](CCCNC(=N)N)C(=O)N[C@@H](CCCCN)C(=O)N[C@@H](CCCNC(=N)N)C(=O)N[C@@H](CC(N)=O)C(=O)N[C@@H](CC(N)=O)C(=O)N[C@@H](CO)C(=O)N[C@@H](CCCNC(=N)N)C(=O)N[C@@H](CC(C)C)C(=O)NCC(=O)N[C@@H](CC(N)=O)C(=O)NCC(=O)N[C@H](C(N)=O)C(C)C [Peptide 11, Pal-HRKRNNSRLGNGV-NH2] (Palmitoyl-HRKRNNSRLGNGV-NH2) | 2500 ± 100 nM | >5000 nM | – | –
5 | CCCCCCCCCCCCCCCC(=O)N[C@@H](CCCNC(=N)N)C(=O)N[C@@H](CCC(N)=O)C(=O)N1CCC[C@H]1C(=O)N[C@@H](CC(=O)O)C(=O)NCC(=O)N1CCC[C@H]1C(=O)N[C@@H](CC(C)C)C(=O)NCC(=O)N1CCC[C@H]1C(=O)N[C@@H](CC(C)C)C(=O)N[C@@H](Cc1ccc(O)cc1)C(N)=O [IR-2, Pal-RQPDGPLGPLY-NH2] (Palmitoyl-RQPDGPLGPLY-NH2) | 60 ± 1 nM | 400 ± 50 nM | inhibited growth | –
6 | CCCCCCCCCCCCCCCC(=O)N[C@@H](Cc1c[nH]cn1)C(=O)N[C@@H](CCCNC(=N)N)C(=O)N[C@@H](CCCCN)C(=O)N[C@@H](CCCNC(=N)N)C(=O)N[C@@H](CC(N)=O)C(=O)N[C@@H](CC(N)=O)C(=O)N[C@@H](CO)C(=O)N[C@@H](CCCNC(=N)N)C(=O)N[C@@H](CC(C)C)C(=O)NCC(=O)N[C@@H](CC(N)=O)C(=O)NCC(=O)N[C@H](C(=O)N[C@@H](CC(C)C)C(=O)N[C@@H](Cc1ccc(O)cc1)C(=O)N[C@@H](C)C(=O)N[C@@H](CO)C(=O)N[C@H](C(=O)N[C@@H](CC(N)=O)C(N)=O)C(C)C)C(C)C [Peptide 3, Pal-HRKRNNSRLGNGVLYASVN-NH2] (Palmitoyl-HRKRNNSRLGNGVLYASVN-NH2) | – | 1550 ± 100 nM | – | exhibited cell killing activity
7 | CCCCCCCCCCCCCCCC(=O)N[C@H](C(=O)N[C@@H](Cc1ccccc1)C(=O)N[C@@H](Cc1c[nH]cn1)C(=O)N[C@@H](CCCNC(=N)N)C(=O)N[C@@H](CCCCN)C(=O)N[C@@H](CCCNC(=N)N)C(=O)N[C@@H](CC(N)=O)C(=O)N[C@@H](CC(N)=O)C(=O)N[C@@H](CO)C(=O)N[C@@H](CCCNC(=N)N)C(=O)N[C@@H](CC(C)C)C(=O)NCC(=O)N[C@@H](CC(N)=O)C(=O)NCC(=O)N[C@H](C(=O)N[C@@H](CC(C)C)C(=O)N[C@@H](Cc1ccc(O)cc1)C(=O)N[C@@H](C)C(=O)N[C@@H](CO)C(=O)N[C@H](C(=O)N[C@@H](CC(N)=O)C(N)=O)C(C)C)C(C)C)C(C)C [Peptide 24] (Palmitoyl-VFHRKRNNSRLGNGVLYASVN-NH2) | 100 ± 50 nM | 1100 ± 100 nM | – | –
8 | CCCCCCCCCCCCCCCC(=O)N[C@@H](CCCNC(=N)N)C(=O)N[C@@H](CC(N)=O)C(=O)N[C@@H](CC(N)=O)C(=O)N[C@@H](CO)C(=O)N[C@@H](CCCNC(=N)N)C(=O)N[C@@H](CC(C)C)C(=O)NCC(=O)N[C@@H](CC(N)=O)C(=O)NCC(=O)N[C@H](C(=O)N[C@@H](CC(C)C)C(=O)N[C@@H](Cc1ccccc1)C(N)=O)C(C)C [Peptide 29, Pal-RNNSRLGNGVLF-NH2] (Palmitoyl-RNNSRLGNGVLF-NH2) | 100 ± 5 nM | 1200 ± 50 nM | – | –
9 | CCCCCCCCCCCCCCCC(=O)N[C@@H](Cc1c[nH]cn1)C(=O)N[C@@H](CCCNC(=N)N)C(=O)N[C@@H](CCCCN)C(=O)N[C@@H](CCCNC(=N)N)C(=O)N[C@@H](CC(N)=O)C(=O)N[C@@H](CC(N)=O)C(=O)N[C@@H](CO)C(=O)N[C@@H](CCCNC(=N)N)C(=O)N[C@@H](CC(C)C)C(=O)NCC(=O)N[C@@H](CC(N)=O)C(=O)NCC(=O)N[C@H](C(=O)N[C@@H](CC(C)C)C(=O)N[C@@H](Cc1ccc(O)cc1)C(=O)N[C@@H](C)C(=O)N[C@@H](CO)C(=O)N[C@H](C(N)=O)C(C)C)C(C)C [Peptide 5, Pal-HRKRNNSRLGNGVLYASV-NH2] (Palmitoyl-HRKRNNSRLGNGVLYASV-NH2) | 450 ± 50 nM | 1450 ± 300 nM | increased the potency | –
10 | CCCCCCCCCCCCCCCC(=O)N[C@@H](CCCNC(=N)N)C(=O)N[C@@H](CC(N)=O)C(=O)N[C@@H](CC(N)=O)C(=O)N[C@@H](CO)C(=O)N[C@@H](CCCNC(=N)N)C(=O)N[C@@H](CC(C)C)C(=O)NCC(=O)N[C@@H](CC(N)=O)C(=O)NCC(=O)N[C@H](C(=O)N[C@@H](CC(C)C)C(=O)N[C@@H](Cc1ccc(O)cc1)C(=O)N[C@@H](C)C(=O)N[C@@H](CO)C(=O)N[C@H](C(N)=O)C(C)C)C(C)C [Peptide 35, Pal-RNNSRLGNGVLYASV-NH2] (Palmitoyl-RNNSRLGNGVLYASV-NH2) | 50 ± 1 nM | 2500 ± 500 nM | – | –
11 | CCCCCCCCCCCCCCCC(=O)N[C@@H](CCCNC(=N)N)C(=O)N[C@@H](CC(N)=O)C(=O)N[C@@H](CC(N)=O)C(=O)N[C@@H](CO)C(=O)N[C@@H](CCCNC(=N)N)C(=O)N[C@@H](CC(C)C)C(=O)NCC(=O)N[C@@H](CC(N)=O)C(=O)NCC(=O)N[C@H](C(=O)N[C@@H](CC(C)C)C(=O)N[C@@H](Cc1ccc(O)cc1)C(=O)N[C@@H](C)C(N)=O)C(C)C [Peptide 33, Pal-RNNSRLGNGVLYA-NH2] (Palmitoyl-RNNSRLGNGVLYA-NH2) | 100 ± 50 nM | >5000 nM | – | –
12 | CCCCCCCCCCCCCCCC(=O)N[C@@H](CCCNC(=N)N)C(=O)N[C@@H](CC(N)=O)C(=O)N[C@@H](CC(N)=O)C(=O)N[C@@H](CO)C(=O)N[C@@H](CCCNC(=N)N)C(=O)N[C@@H](CC(C)C)C(=O)NCC(=O)N[C@@H](CC(N)=O)C(=O)NCC(=O)N[C@H](C(=O)N[C@@H](CC(C)C)C(=O)N[C@@H](Cc1ccc(O)cc1)C(=O)N[C@@H](C)C(=O)N[C@@H](CO)C(N)=O)C(C)C [Peptide 34, Pal-RNNSRLGNGVLYAS-NH2] (Palmitoyl-RNNSRLGNGVLYAS-NH2) | 40 ± 1 nM | >5000 nM | – | –
